Measured values: the supplement of paper PMC10307832

Columns and labels:
Assay in all cases: relative viability (nuclei count vs DMSO), 5 days (fraction); higher = more cells survive
RU-SKI 43 + Trametinib = compound: CC[C@@H](C)CNCC(=O)N1CCC2=C([C@@H]1COC3=CC=CC(=C3)C)C=CS2 [RU-SKI 43] + CC(=O)Nc1cccc(-n2c(=O)n(C3CC3)c(=O)c3c(Nc4ccc(I)cc4F)n(C)c(=O)c(C)c32)c1 [Trametinib] (partner 0.02 µM)
How it was run: (§1)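 After 5 days of treatment, lung cancer cells in 1536-well plates were fixed and stained in a single step (final 0.05% Triton X-100, 1% formaldehyde, 1 ug/ml Hoechst) and their nuclei counted on 4× images. Treatment had been applied by pin tool the day after seeding as one drug alone or as a fixed anchor-drug dose with five library-drug doses (not always all listed) in √10 steps. Relative viability is the nuclei count of treated wells divided by that of vehicle wells, and values are medians of duplicate plates.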

MK-8033 + Decitabine = compound: Cn1cc(-c2cnc3ccc4ccc(CS(=O)(=O)NCc5ccccn5)cc4c(=O)c3c2)cn1 [MK-8033] + Nc1ncn([C@H]2C[C@H](O)[C@@H](CO)O2)c(=O)n1 [Decitabine] (partner 2 µM)
How it was run: as §1

RU-SKI 43 + Pemetrexed = compound: CC[C@@H](C)CNCC(=O)N1CCC2=C([C@@H]1COC3=CC=CC(=C3)C)C=CS2 [RU-SKI 43] + Nc1nc2[nH]cc(CCc3ccc(C(=O)N[C@@H](CCC(=O)O)C(=O)O)cc3)c2c(=O)[nH]1 [Pemetrexed] (partner 0.2 µM)
How it was run: as §1

MK-8033 + Alpelisib = compound: Cn1cc(-c2cnc3ccc4ccc(CS(=O)(=O)NCc5ccccn5)cc4c(=O)c3c2)cn1 [MK-8033] + Cc1nc(NC(=O)N2CCC[C@H]2C(N)=O)sc1-c1ccnc(C(C)(C)C(F)(F)F)c1 [Alpelisib] (partner 2 µM)
How it was run: as §1

Cell Line	relative viability (RU-SKI 43 + Trametinib; first compound 0.1 µM)	relative viability (RU-SKI 43 + Trametinib; first compound 0.3162 µM)	relative viability (RU-SKI 43 + Trametinib; first compound 1 µM)	relative viability (RU-SKI 43 + Trametinib; first compound 3.162 µM)	relative viability (RU-SKI 43 + Trametinib; first compound 10 µM)	relative viability (MK-8033 + Decitabine; first compound 0.02 µM)	relative viability (MK-8033 + Decitabine; first compound 0.06325 µM)	relative viability (MK-8033 + Decitabine; first compound 0.2 µM)	relative viability (MK-8033 + Decitabine; first compound 0.6325 µM)	relative viability (MK-8033 + Decitabine; first compound 2 µM)	relative viability (RU-SKI 43 + Pemetrexed; first compound 0.1 µM)	relative viability (RU-SKI 43 + Pemetrexed; first compound 0.3162 µM)	relative viability (RU-SKI 43 + Pemetrexed; first compound 1 µM)	relative viability (RU-SKI 43 + Pemetrexed; first compound 3.162 µM)	relative viability (RU-SKI 43 + Pemetrexed; first compound 10 µM)	relative viability (MK-8033 + Alpelisib; first compound 0.02 µM)	relative viability (MK-8033 + Alpelisib; first compound 0.2 µM)	relative viability (MK-8033 + Alpelisib; first compound 0.6325 µM)	relative viability (MK-8033 + Alpelisib; first compound 2 µM)	relative viability (MK-8033 + Alpelisib; first compound 0.06325 µM)
LOU-NH91	0.774	0.749	0.802	0.825	0.808	0.792	0.662	0.789	0.789	0.813	0.399	0.345	0.456	0.389	0.378	0.727	0.69	0.702	0.699	–
NCI-H596	0.775	0.883	0.858	0.793	0.717	0.987	0.901	0.921	1.12	1.03	0.537	0.473	0.552	0.507	0.508	0.436	0.462	0.46	0.477	0.511
LXF-289	0.682	0.743	0.728	0.66	0.66	0.377	0.394	0.352	0.408	0.338	0.924	0.862	0.939	0.902	0.999	1.08	0.976	0.994	0.998	0.984
NCI-H2009	0.28	0.295	0.291	0.313	0.244	0.376	0.318	0.351	0.372	0.403	1.06	1.17	1.14	1.06	1.08	1.13	1.09	1.11	1.14	1.12
NCI-H1395	1.06	1.2	1.23	0.98	0.981	0.68	0.701	0.71	0.7	0.693	0.992	0.805	1.2	0.855	0.967	1.2	1.16	1.13	1.05	1
NCI-H1993	0.474	0.514	0.615	0.579	0.694	0.488	0.624	0.557	0.563	0.546	0.59	0.625	0.558	0.624	0.465	0.612	0.649	0.714	0.675	0.611
HCC-366	0.34	0.253	0.311	0.333	0.212	0.327	0.361	0.331	0.36	0.366	0.187	0.151	0.154	0.219	0.228	0.409	0.325	0.376	0.325	0.435
NCI-H322M	0.492	0.553	0.534	0.565	0.553	0.74	0.663	0.742	0.762	0.747	0.642	0.68	0.662	0.673	0.572	0.697	0.801	0.792	0.839	0.77
